These results are taken from patent US8741843B2, “Compositions and methods for inducing angiogenesis” (priority 2006, dated 2014).

For one test, the system named is mouse ischemic hind limb. The test is described as follows: Mouse hind-limb ischemia model, laser Doppler blood perfusion. Format: in vivo. The settings on record: 0.1 microgram/mouse i.m., day 21 after surgery, vs PBS. How it is done:
A mouse hind limb model was created by excision of femoral artery of C57B1 mouse hind limb, the non-operated limb served as a control. ADOPep1 (SEQ ID NO:2; red symbols) and 3 (SEQ ID NO:4; green symbols) were injected intra-muscularly one day after surgery at 0.1 (squares) and 1 (circles) micrograms/mouse. Injection of PBS (black diamond) was used as a control. Blood flow was measured using a laser Doppler immediately (T0) or at 7 (T7), 14 (T14) and 21 (T21) days after surgery. The average perfusion of each limb was determined and the perfusion ratio [expressed as Relative Perfusion (ischemic left/control right leg)] was plotted against time.
A mouse hind limb ischemia model was used. Ischemia was created in the C57B1 strain mouse by ligation and excision of the femoral artery on the left hind limb. The right hind limb served as a control. A day after the operation ADOPep1 and 3 were injected intramuscular at a site close to the operation. […] The blood perfusion was measured using a Laser Doppler Blood perfusion analyzer (Perimed, Sweden) one day post operation and 7, 14, 21 days post operation. The average perfusion of each limb was computed and percent perfusion ratio was expressed as the ischemic (left)/control (right) percent perfusion ratio.

For test [1], the system named is GRP78 receptor on endothelial cells. The test is described as follows: Competitive binding of ADOPeps to GRP78 (anti-GRP78 antibody ELISA on endothelial cells). Conditions: summary of 4 experiments. Further details: species or system human. On the procedure: FIG. 19 is a graph depicting inhibition of binding (in percentages) of anti-GRP78 antibody to endothelial cells by increasing concentrations of ADOPep1, 2, and 3 peptides. Endothelial cells were incubated for 2 hours with increasing concentrations of ADOPeps, following which the cells were incubated for another 1 hour with the 2 μg/ml of anti-GRP78 antibody and the amount of bound antibody on EC was detected using an ELISA reader.
Endothelial cells (20,000 per well) were seeded in 96 well plates for 24 hours in the presence of the complete medium. Plates were washed with PBS over night and rehydrated with PBS, 0.1% Na Azide and 5% FCS. ADOPep1, ADOPep2 and ADOPep3 were added to washed plates for 2 hours at room temperature at concentrations of 0.01, 0.1 and 1 microgram per ml. Anti-GRP78 antibody (goat polyclona IgG, Santa Cruz Biotechnology, Calif., USA) was added to the plates for 1 hour at room temperature at a concentration of 2 micrograms/ml per well. After washing, bound anti-GRP78 antibody was detected by incubation with anti-goat IgG Peroxidase conjugated (Jackson Immuneresearch Laboratories, PA, USA). After 5 washes with PBS-0.1% Tween 20, 100 μl/well of TMB+ Substrate-Chromogen (DAKOCytomation, CA, USA) was added for a maximum of 30 minutes. Reaction was stopped with 1N HCl. Color developed was determined by an ELISA reader at 450 nm.
A general note: ELISA stands for enzyme-linked immunosorbent assay.

The next test addresses GRP78 (Homo sapiens, UniProt P11021). Nature of the test: GRP78 receptor internalization in endothelial cells under hypoxia. Conditions: 10 ng/ml, after 5 minutes of incubation. Further details: endogenous in cells; host or cells: HUVEC / endothelial cells from umbilical cords, under normoxia or hypoxia. The class given is cell-based. On the procedure:
FIG. 29 is a graph depicting GRP78 receptor internalization response to ADOPep1 binding under hypoxic conditions. Endothelial cells were incubated under starvation conditions and hypoxia over night. Cells were incubated with 10 ng/ml ADoPep1 for 5, 15, 30 and 60 minutes. For membrane staining biotinylated AdoePep1 at 5 micrograms was added to intact cells for 1 hour and replaced by streptavidin FITC. For intracellular staining, cells were fixed with 1% paraformaldehyde followed by 15 minutes incubation with 0.1% saponin. After washing of cells, biotinylated AdoPep was added to the cells. The samples were analyzed with a FACScan (Beckton Dickinson). Membrane staining is shown by the blue bars (results are expressed in percentages, as normalized to untreated cells); Mean intracellular staining is shown by the purple bars (results are expressed in mean fluorescence);

Entries after “also recorded” stand apart in the source; their conditions may differ.

Chain of GRP78 (P11021 19-654): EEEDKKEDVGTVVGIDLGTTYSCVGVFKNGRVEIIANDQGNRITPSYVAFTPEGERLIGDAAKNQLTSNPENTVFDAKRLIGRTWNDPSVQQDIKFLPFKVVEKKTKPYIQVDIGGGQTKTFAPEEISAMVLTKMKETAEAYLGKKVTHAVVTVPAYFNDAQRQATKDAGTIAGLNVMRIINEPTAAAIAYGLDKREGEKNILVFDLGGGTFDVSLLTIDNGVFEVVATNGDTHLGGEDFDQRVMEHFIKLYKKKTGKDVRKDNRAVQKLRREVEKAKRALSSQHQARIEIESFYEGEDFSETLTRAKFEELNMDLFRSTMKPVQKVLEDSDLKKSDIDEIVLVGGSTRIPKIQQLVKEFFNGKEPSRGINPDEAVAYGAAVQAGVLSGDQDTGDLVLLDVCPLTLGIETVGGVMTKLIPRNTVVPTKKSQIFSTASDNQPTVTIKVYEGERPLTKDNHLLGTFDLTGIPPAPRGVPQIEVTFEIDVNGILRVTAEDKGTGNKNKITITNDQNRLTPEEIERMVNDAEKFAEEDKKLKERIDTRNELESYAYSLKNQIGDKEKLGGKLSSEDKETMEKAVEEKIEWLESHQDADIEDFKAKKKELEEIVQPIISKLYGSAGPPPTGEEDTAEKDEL

“HWRRAHLLPRLP [ADOPep1, ADAM15 derived peptide, amino acids 286-297 of the metalloprotease domain]”: the “blood perfusion ratio (ischemic left/control right)” value in the test on mouse ischemic hind limb was “significant increase in the blood perfusion ratio; also recorded: significant increase in blood perfusion (p<0.05)”. In test [1], the “inhibition of binding of anti-GRP78 antibody to EC (in words)” value was “some degree of inhibition”. Moreover, in the test with GRP78, the GRP78 receptor internalization entry was “induced GRP78 receptor internalization”.
